{"source": "ChEMBL document CHEMBL1158916", "about": "“2-O-alpha-D-galactopyranosyl glycerol hexaacetate from Ruellia brittoniana” (J Nat Prod, 1990)", "tested_on": "Rattus norvegicus", "assay": "Toxicity in anesthetized rat assessed as increase in mean arterial pressure at 100 ug/kg", "type": "organism-based, Artery", "details": "in vivo, 0.1 mg/kg"}
{"smiles": "CC(=O)OCC(COC(C)=O)O[C@H]1O[C@H](COC(C)=O)[C@H](OC(C)=O)[C@H](OC(C)=O)[C@H]1OC(C)=O", "values": [{"measurement": "Activity", "result": "Toxic"}]}
